Measurements published in US20260091008A1, “DOUBLE TARGETED CONSTRUCTS TO AFFECT TUMOR KILL” (Cornell University, priority 2016, published 2026).
“And” between values parts separate entries of the source, which are not always exact repeats. Equal values may be shown once.

Key:
HSA = HSA (Homo sapiens, UniProt P02768); experiment: HSA affinity determination on immobilized-HSA microcolumns; assay type: binding; settings: HSA microcolumn, phosphate buffer pH 7.4, room temperature
Description: HSA affinity determination. HSA was immobilized to HPLC-grade silica by the Schiff base method as described previously and were packed into 10 mm×2.1 mm i.d. microcolumns. See Chen J, Hage D S. Quantitative studies of allosteric effects by biointeraction chromatography: analysis of protein binding for low-solubility drugs. Anal Chem. 2006:78:2672-2683 and Matsuda R, Anguizola J, Hoy K S, Hage D S. Analysis of drug-protein interactions by high-performance affinity chromatography: interactions of sulfonyl urea drugs with normal and glycated human serum albumin. Methods Mol Biol. 2015; 1286:255-277, each of which is incorporated herein by reference. The protein content of these columns was approximately 60 mg HSA per gram of silica. See Zheng X, Podariu M, Bi C, Hage D S. Development of enhanced capacity affinity microcolumn by using a hybrid of protein cross-linking/modification and immobilization. J. Chromatogr A. 2015; 1400:82-90, incorporated herein by reference. Control microcolumns were prepared in the same manner but with no HSA being added during the immobilization step. The retention factor for each compound was measured on both an HSA microcolumn and a control column by injecting 5 μL samples that contained approximately 50 μM of the compound in 0.067M potassium phosphate buffer (pH 7.4). All samples were injected in triplicate at room temperature and at 1.0 mL/min, with the phosphate buffer used as the mobile phase. Similar injections were made with samples containing sodium nitrate, which was used as a void volume marker. Elution of the injected compounds was monitored by absorbance detection. The dissociation constant (Kd) for each compound with HSA estimated by using the measured retention factors, after correcting for any observed retention on the control column, along with the estimated content of active HSA in the column, as based on injections made with warfarin and L-tryptophan (i.e., probes for Sudlow sites I and II of HSA). See Chen J, Hage D S. Anal Chem. 2006:78:2672-2683 (cited above) and Joseph K S, Hage D S. The effects of glycation on the binding of human serum albumin to warfarin and L-tryptophan. J Pharm Biomed Anal. 2010; 53:811-818, incorporated herein by reference.

PSMA on LNCaP cells = target: T1, PSMA on LNCaP cells (Homo sapiens, UniProt Q04609); experiment: Multi-concentration competitive binding assay against 99mTc-MIP-1427 on LNCaP cells; settings: non-radioactive ligands vs 1 nM 99mTc-MIP-1427, LNCaP cells, 1 h
T1 construct: host or cells: LNCaP
Experimental: Cell Culture. […] Cell culture supplies were from Invitrogen unless otherwise noted.
In vitro determination of IC50. […] Eur J Nucl Med Mol Imaging. 2017; 44, 647-661, incorporated herein by reference. […] The cells were incubated for 1 h with 1 nM ^99mTc-MIP-1427 in serum-free RPMI-1640 medium in the presence of 0.1-10,000 nM test compounds. […] Cells were harvested from the plates and transferred to tubes for radioactive counting using a Packard Cobra II Gamma Counter. IC50 values were determined by non-linear regression using GraphPad Prism software.

LNCaP cell xenografts = experiment: Tissue distribution of 131I-labeled compounds in mice bearing LNCaP xenografts; settings: male, NCr-nu/nu, mouse, in vivo
Experimental: Inoculation of mice with xenografts. All animal studies were approved by the Institutional Animal Care and Use Committee of Weill Cornell Medicine and were undertaken in accordance with the guidelines set forth by the USPHS Policy on Humane Care and Use of Laboratory Animals. Animals were housed under standard conditions in approved facilities with 12 h light/dark cycles. Food and water was provided ad libitum throughout the course of the studies. Male inbred athymic nu/nu mice were purchased from The Jackson Laboratory. For inoculation in mice, LNCaP cells were suspended at 4×10^7 cells/mL in a 1:1 mixture of PBS:Matrigel (BD Biosciences). Each mouse was injected in the left flank with 0.25 mL of the cell suspension. The mice were imaged when the tumors reached approximately 200-400 mm^3, while biodistributions were conducted when tumors were in the range 100-400 mm^3.
Tissue Distribution Studies. A quantitative analysis of the tissue distribution of ^131I-labeled compounds was performed in separate groups of male NCr-nu/nu mice bearing LNCaP cell xenografts administered via the tail vein as a bolus injection (approximately 370 kBq (10 μCi)/mouse) in a volume of 0.05-0.1 mL of saline solution containing 2.5% v/v DMSO. The animals (n=3-5/time point) were euthanized by asphyxiation with CO2 at the indicated time points after injection. Tissues, including blood, heart, lungs, liver, spleen, pancreas, kidneys, stomach, large and small intestines (with contents), skeletal muscle, bone, and tumor, were dissected, excised, weighed wet (Sartorius analytical balance), and counted in a Wizard automated […] (Perkin Elmer). A 1% ID/g standard was counted with the tissue samples. Tissue time-radioactivity levels expressed as percent injected dose per gram of tissue (% ID/g) were determined. Blood pharmacokinetics were modeled as a dual compartment system using bi-exponential least-squares regression fit to the data. Regression method was implemented in MATLAB R2015b (MathWorks, Natick, MA).

[1] = salivary glands, radioligand therapy; cited from earlier work
[2] = in vivo; cited from earlier work

HSA, sequence (P02768 25-609): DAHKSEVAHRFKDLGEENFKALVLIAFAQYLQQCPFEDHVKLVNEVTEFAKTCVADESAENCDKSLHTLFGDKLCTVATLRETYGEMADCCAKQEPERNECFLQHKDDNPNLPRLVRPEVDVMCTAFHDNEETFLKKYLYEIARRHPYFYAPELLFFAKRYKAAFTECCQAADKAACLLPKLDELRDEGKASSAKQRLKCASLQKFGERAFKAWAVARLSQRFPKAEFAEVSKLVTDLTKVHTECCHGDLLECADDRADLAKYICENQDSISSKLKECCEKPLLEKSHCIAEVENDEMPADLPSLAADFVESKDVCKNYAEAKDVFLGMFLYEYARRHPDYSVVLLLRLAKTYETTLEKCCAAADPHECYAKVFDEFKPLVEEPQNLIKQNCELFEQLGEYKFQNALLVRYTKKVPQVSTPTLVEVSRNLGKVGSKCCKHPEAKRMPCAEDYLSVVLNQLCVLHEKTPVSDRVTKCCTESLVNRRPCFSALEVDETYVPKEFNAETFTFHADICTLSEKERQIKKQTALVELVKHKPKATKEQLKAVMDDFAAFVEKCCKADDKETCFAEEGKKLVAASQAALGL
T1 sequence (Q04609 whole entry): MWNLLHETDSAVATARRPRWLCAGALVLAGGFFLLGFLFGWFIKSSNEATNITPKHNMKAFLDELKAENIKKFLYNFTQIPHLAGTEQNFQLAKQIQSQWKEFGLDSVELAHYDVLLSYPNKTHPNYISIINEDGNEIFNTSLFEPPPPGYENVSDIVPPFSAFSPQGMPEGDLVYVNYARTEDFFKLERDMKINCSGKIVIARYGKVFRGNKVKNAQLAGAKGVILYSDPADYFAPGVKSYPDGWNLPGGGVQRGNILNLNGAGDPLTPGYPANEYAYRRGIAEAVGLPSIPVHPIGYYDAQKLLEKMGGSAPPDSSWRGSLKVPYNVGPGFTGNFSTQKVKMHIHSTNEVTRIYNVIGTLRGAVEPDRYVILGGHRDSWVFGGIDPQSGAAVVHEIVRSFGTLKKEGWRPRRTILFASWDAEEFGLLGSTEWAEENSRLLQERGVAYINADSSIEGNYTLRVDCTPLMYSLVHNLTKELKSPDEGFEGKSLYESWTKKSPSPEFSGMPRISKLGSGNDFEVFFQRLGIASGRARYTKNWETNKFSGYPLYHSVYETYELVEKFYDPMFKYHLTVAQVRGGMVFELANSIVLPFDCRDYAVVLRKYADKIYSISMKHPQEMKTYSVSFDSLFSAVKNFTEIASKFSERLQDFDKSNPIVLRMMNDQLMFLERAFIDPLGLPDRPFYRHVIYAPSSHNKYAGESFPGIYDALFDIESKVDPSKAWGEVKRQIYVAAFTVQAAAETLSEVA

With O=C(O)CC[C@H](NC(=O)N[C@@H](CCCCNC(=O)Nc1ccc(I)cc1)C(=O)O)C(=O)O [RPS-001, reference compound] the Kd (HSA) was 19200 nM.
O=C(O)CC[C@H](NC(=O)N[C@@H](CCCCNC(=O)CCCc1ccc(I)cc1)C(=O)O)C(=O)O [RPS-005, (((S)-1-Carboxy-5-(4-(4-iodophenyl)butanamido)pentyl)carbamoyl)-L-glutamic acid] gave an IC50 (PSMA on LNCaP cells) of 4 nM and a Kd (HSA) of 980 nM.
For O=C(O)CC[C@H](NC(=O)N[C@@H](CCC(=O)N[C@@H](CCCCNC(=O)CCCc1ccc(I)cc1)C(=O)O)C(=O)O)C(=O)O [RPS-025, (3S,7S,12S)-21-(4-iodophenyl)-5,10,18-trioxo-4,6,11,17-tetraazahenicosane-1,3,7,12-tetracarboxylic acid], the IC50 (PSMA on LNCaP cells) was 15 nM, the Kd (HSA) was under 1000 nM and the “Kd for HSA” value (HSA) was “could not be eluted from the column”.
For O=C(O)CC[C@H](NC(=O)N[C@@H](CCCCNC(=O)CCc1ccc(I)cc1)C(=O)O)C(=O)O [RPS-026, (((S)-1-Carboxy-5-(3-(4-iodophenyl)propanamido)pentyl)carbamoyl)-L-glutamic acid], the IC50 (PSMA on LNCaP cells) was 40 nM and the Kd (HSA) was 26600 nM.
For O=C(O)CC[C@H](NC(=O)N[C@@H](CCCCNC(=O)Cc1ccc(I)cc1)C(=O)O)C(=O)O [RPS-027, (((S)-1-Carboxy-5-(2-(4-iodophenyl)acetamido)pentyl)carbamoyl)-L-glutamic acid], the IC50 (PSMA on LNCaP cells) was 15 nM and the Kd (HSA) was 11000 nM and 11200 nM.
With O=C(O)CCC(NC(=O)N[C@@H](CCCCNC(=O)Nc1ccc([131I])cc1)C(=O)O)C(=O)O (some centres unmarked) [^131I-RPS-001] the “Blood t1/2 for the distribution phase” value (LNCaP cell xenografts) was 2.17 h, the “Blood t1/2 for the elimination phase” value (LNCaP cell xenografts) was 20.38 h and the Initial kidney uptake (LNCaP cell xenografts) was over 100 % ID/g. The “Time post injection at which T/K ratio reaches 3” value (LNCaP cell xenografts) was about 96 h, the Kidney uptake (LNCaP cell xenografts; 24 h) was 65.24±22.61 % ID/g and the Large intestine uptake (LNCaP cell xenografts; 24 h) was 2.35±1.26 % ID/g. The Spleen uptake (LNCaP cell xenografts; 24 h) was 2.41±1.40 % ID/g, the Tumor uptake (LNCaP cell xenografts; 24 h) was 19.81±6.16 % ID/g and the Kidney uptake (LNCaP cell xenografts; 96 h) was 2.12±2.47 % ID/g. The Tumor uptake (LNCaP cell xenografts; 96 h) was 10.21±4.30 % ID/g and the “Toxicity reported in patients” value [1] was “dose-limiting toxicity to the salivary glands”.
O=C(O)CCC(NC(=O)NC(CCCCNC(=O)CCCc1ccc([131I])cc1)C(=O)O)C(=O)O (centres unmarked) [^131I-RPS-005] showed a Kd (HSA) of 890 nM, a Blood activity (LNCaP cell xenografts; 24 h) of 21.35±3.99 % ID/g and a Heart uptake (LNCaP cell xenografts; 24 h) of 4.40±0.74 % ID/g. The Kidney uptake (LNCaP cell xenografts; 24 h) was 39.09±2.96 % ID/g, the Liver uptake (LNCaP cell xenografts; 24 h) was 3.41±0.56 % ID/g and the Lungs uptake (LNCaP cell xenografts; 24 h) was 8.87±0.74 % ID/g. The Tumor uptake (LNCaP cell xenografts; 24 h) was 9.37±1.56 % ID/g, the Blood activity (LNCaP cell xenografts; 96 h) was 15.57±3.98 % ID/g and the Tumor uptake (LNCaP cell xenografts; 96 h) was 10.82±2.64 % ID/g.
In the case of O=C(O)CC[C@H](NC(=O)NC(CCCCNC(=O)c1ccc([211At])cc1)C(=O)O)C(=O)O (stereo partly drawn) [^211At-6, (2S)-2-(3-(1-carboxy-5-(4-^211At-astatobenzamido)pentyl)ureido)-pentanedioic acid], the Nephrotoxicity [2] is listed as “dose-limiting, irreversible nephrotoxicity”.
For O=C([O-])CC[C@H](NC(=O)N[C@@H](CCCCNC(=O)[C@H](Cc1ccc2ccccc2c1)NC(=O)[C@H]1CC[C@H](CNC(=O)CN2CCN(CC(=O)[O-])CCN(CC(=O)[O-])CCN(CC(=O)[O-])CC2)CC1)C(=O)[O-])C(=O)[O-].[225Ac].[H+].[H+].[H+] [^225Ac-PSMA-617], the “Toxicity reported in patients” value [1] is given as “severe and sustained xerostomia”.
“(((S)-1-Carboxy-4-(2-(4-iodophenyl)acetamido)pentyl)carbamoyl)-L-glutamic acid [RPS-023]” showed an IC50 (PSMA on LNCaP cells) of 10 nM and a Kd (HSA) of 53200 nM.
For “(((S)-1-Carboxy-4-(3-(4-iodophenyl)propanamido)pentyl)carbamoyl)-L-glutamic acid [RPS-022]”, the IC50 (PSMA on LNCaP cells) was 10 nM and the Kd (HSA) was 22900 nM.
In the case of “(((S)-1-Carboxy-4-(4-(4-iodophenyl)butanamido)pentyl)carbamoyl)-L-glutamic acid [RPS-020]”, the IC50 (PSMA on LNCaP cells) is reported as 8 nM and the Kd (HSA) is reported as 2100 nM.
